{"source": "paper PMC10794144", "about": "“A novel antibiotic class targeting the lipopolysaccharide transporter” (Nature, 2024)", "key": {"E. coli": {"test_system": "E. coli", "assay": "MIC versus efflux impaired and porin deficient strains", "type": "cell-based", "conditions": "Escherichia coli", "description": "MIC determinations were performed using the broth microdilution method and in line with CLSI guidelines M07 and M100 (refs. [37],[38]). Bacterial inocula were prepared by diluting a 0.5 McFarland suspension in CAMHB or lysogeny broth (LB) specifically for A. baylyi isolates. […] MIC values of all of the tested antibiotics were read as the lowest compound concentration inhibiting bacterial growth by naked eye or beyond which the OD600 ceased to decrease."}, "A. baumannii": {"test_system": "A. baumannii", "assay": "Agar dilution MIC, Mueller–Hinton agar with 20% human serum", "type": "cell-based", "conditions": "Acinetobacter baumannii", "description": "Molten Mueller–Hinton agar (19 ml) supplemented with 20% human serum was added to 1 ml of compound at 20× the final concentration, poured immediately into Petri dishes (100 mm diameter) and gently mixed. Then, 2–3 colonies from agar plates were inoculated into CAMHB and incubated overnight under shaking (150 rpm). […] The agar plates were incubated aerobically at 35 ± 2 °C."}, "A. baylyi LptB2FGC": {"test_system": "A. baylyi LptB2FGC", "assay": "LPS-release assay, proteoliposomes to LptA", "type": "biochemical, Acinetobacter baylyi", "description": "Proteoliposomes were prepared as described previously. Aqueous E. coli polar lipid extract (Avanti Polar Lipids) (30 mg ml^−1) and aqueous LPS from E. coli EH100 (Ra mutant; Sigma-Aldrich) (2 mg ml^−1) were sonicated briefly for homogenization. A mixture of 20 mM Tris-HCl (pH 8.0), 150 mM NaCl, 7.5 mg ml^−1 E. coli polar lipids, 0.5 mg ml^−1 LPS and 0.25% DDM was prepared and kept on ice for 10 min. Purified LptB2FGC was added to a final concentration of 0.86 μM, and the mixture was left on ice for 20 min. The mixture was diluted 100-fold with cold 20 mM Tris-HCl (pH 8.0) and 150 mM NaCl and kept on ice for 20 min. The proteoliposomes were pelleted (300,000g, 2 h, 4 °C), resuspended in 20 mM Tris-HCl (pH 8.0) and 150 mM NaCl, diluted 100× and centrifuged (300,000g, 2 h, 4 °C). The pellets were resuspended in a mixture of 20 mM Tris-HCl (pH 8.0), 150 mM NaCl and 10% glycerol (250 μl per 100 μl of the original predilution solution), homogenized by sonication, flash-frozen and stored at −80 °C until use.\nThe levels of release of LPS from proteoliposomes to LptA were measured as previously described. Assays used 60% proteoliposomes (by volume) in a solution containing 50 mM Tris-HCl (pH 8.0), 500 mM NaCl, 10% glycerol and 2 µM LptA^I36pBPA. Reaction mixtures were incubated with drug for 10 min at room temperature, as applicable. […]"}, "E. coli LptB2FGC": {"target": "T1, E. coli LptB2FGC (Escherichia coli, UniProt P0ADC6+P0AF98)", "T1 construct": "made in house; host or cells: E. coli C43(λDE3)", "assay": "LPS-release assay, proteoliposomes to LptA", "type": "biochemical", "conditions": "E. coli LptB2FGC proteins", "description": "The levels of release of LPS from proteoliposomes to LptA were measured as previously described. Assays used 60% proteoliposomes (by volume) in a solution containing 50 mM Tris-HCl (pH 8.0), 500 mM NaCl, 10% glycerol and 2 µM LptA^I36pBPA. Reaction mixtures were incubated with drug for 10 min at room temperature, as applicable. Reactions were then initiated by the addition of ATP and MgCl2 (final concentrations of 5 mM and 2 mM, respectively) and proceeded at 30 °C. Aliquots (25 µl) were removed from the reaction mixtures and irradiated with ultraviolet light (365 nm) on ice for 10 min using a B-100AP lamp (Thermo Fisher Scientific). After ultraviolet irradiation, 25 µl 2× SDS–PAGE sample loading buffer was added, the samples were boiled for 10 min and proteins were separated using Tris-HCl 4–20% polyacrylamide gradient gels with Tris-glycine running buffer. Immunoblotting was conducted as described above."}, "A. baumannii ACC01073": {"test_system": "A. baumannii ACC01073", "assay": "Neutropaenic mouse lung infection (pneumonia) model", "type": "in vivo", "conditions": "for CFU/lungs, average / Log CFU/lungs, average (bacterial load): n = 6", "description": "An intramuscular inoculation of a bacterial suspension of approximately 10^6 CFU per thigh was used to induce the infection. Treatment started 2 h after infection. […] Thigh bacterial burden was determined after 24 h of treatment. In the pneumonia model, an intratracheal inoculation of approximately 10^7 CFU per lung was used to induce the infection. Treatment started 2 h after infection. […] Lung bacterial burden was determined after 24 h treatment. Standard of care antibiotic was tested at a single dose in both infection models. GraphPad Prism 8 was used for graphical presentation and to analyse data."}}, "data": [{"smiles": "CN1C(=O)[C@H](CCCCN)NC(=O)[C@H](CCCN)NCc2cccnc2Sc2c(Cl)ccc(Cl)c2CNC(=O)[C@@H]1Cc1c[nH]c2ccccc12", "note": "[RO7075573]", "values": [{"measurement": "MIC", "setting": "E. coli; E. coli 7623, WT, CAMHB, 100% inhibition, n = 1", "value": "> 64", "unit": "µg/mL"}, {"measurement": "MIC", "setting": "E. coli; E. coli 7623-, efflux impaired, Δ tolC", "value": 32, "unit": "µg/mL"}, {"measurement": "MIC", "setting": "E. coli; E. coli R1535, porin deficient, Δ (OmpC; OmpF)", "value": "> 64", "unit": "µg/mL"}]}, {"smiles": "CN1C(=O)[C@H](CCCCN)NC(=O)[C@H](CCCN)NCc2cccnc2Sc2cccc(-c3ccc(C(=O)O)cc3)c2CNC(=O)[C@@H]1Cc1c[nH]c2ccccc12", "note": "[zosurabalpin]", "values": [{"measurement": "MIC", "setting": "A. baumannii; ACC00445", "value": 0.25, "unit": "µg/mL"}, {"measurement": "MIC", "setting": "A. baumannii; ACC00535", "value": 0.12, "unit": "µg/mL"}, {"measurement": "MIC", "setting": "A. baumannii; ACC01073", "value": 1, "unit": "µg/mL"}, {"measurement": "MIC", "setting": "A. baumannii; ACC01077", "value": 0.25, "unit": "µg/mL"}, {"measurement": "MIC", "setting": "A. baumannii; ACC01085/AR0307", "value": 0.25, "unit": "µg/mL"}, {"measurement": "MIC", "setting": "A. baumannii; ATCCBAA747, ATCC BAA-747", "value": 0.12, "unit": "µg/mL"}, {"measurement": "MIC", "setting": "A. baumannii; ROB08706", "value": 1, "unit": "µg/mL"}, {"measurement": "MIC", "setting": "A. baumannii; ROB08708", "value": 0.12, "unit": "µg/mL"}, {"measurement": "LPS transport", "setting": "A. baylyi LptB2FGC; complexes with LptF E249K or I317N", "value": "did not inhibit LPS transport"}, {"measurement": "LPS extraction to LptA", "setting": "A. baylyi LptB2FGC; wild-type LptB2FGC proteoliposomes, biological triplicate", "value": "blocked LPS extraction at concentrations comparable to growth inhibitory concentrations"}, {"measurement": "LPS extraction to LptA", "setting": "E. coli LptB2FGC", "value": "no effect on LPS extraction"}, {"measurement": "ΔLog CFU/lungs vs A/0h", "setting": "A. baumannii ACC01073; 6 mg/kg/day s.c. q6h, 24 h", "value": 1.37}, {"measurement": "CFU/lungs, average", "setting": "A. baumannii ACC01073; 6 mg/kg/day s.c. q6h, 24 h", "value": "1.26E+09"}, {"measurement": "Log CFU/lungs, average (bacterial load)", "setting": "A. baumannii ACC01073; 6 mg/kg/day s.c. q6h, 24 h", "value": 9.06}, {"measurement": "ΔLog CFU/lungs vs A/0h", "setting": "A. baumannii ACC01073; 20 mg/kg/day q6h", "value": 1.47}, {"measurement": "CFU/lungs, average", "setting": "A. baumannii ACC01073; 20 mg/kg/day q6h", "value": "1.49E+09"}, {"measurement": "Log CFU/lungs, average (bacterial load)", "setting": "A. baumannii ACC01073; 20 mg/kg/day q6h", "value": 9.16}, {"measurement": "ΔLog CFU/lungs vs A/0h", "setting": "A. baumannii ACC01073; 60 mg/kg/day q6h", "value": 1.13}, {"measurement": "CFU/lungs, average", "setting": "A. baumannii ACC01073; 60 mg/kg/day q6h", "value": "8.46E+08"}, {"measurement": "Log CFU/lungs, average (bacterial load)", "setting": "A. baumannii ACC01073; 60 mg/kg/day q6h", "value": 8.82}, {"measurement": "ΔLog CFU/lungs vs A/0h", "setting": "A. baumannii ACC01073; 100 mg/kg/day q6h", "value": -0.05}, {"measurement": "CFU/lungs, average", "setting": "A. baumannii ACC01073; 100 mg/kg/day q6h", "value": "1.38E+08"}, {"measurement": "Log CFU/lungs, average (bacterial load)", "setting": "A. baumannii ACC01073; 100 mg/kg/day q6h", "value": 7.64}, {"measurement": "ΔLog CFU/lungs vs A/0h", "setting": "A. baumannii ACC01073; 160 mg/kg/day q6h", "value": -1.08}, {"measurement": "CFU/lungs, average", "setting": "A. baumannii ACC01073; 160 mg/kg/day q6h", "value": "9.40E+06"}, {"measurement": "Log CFU/lungs, average (bacterial load)", "setting": "A. baumannii ACC01073; 160 mg/kg/day q6h", "value": 6.61}, {"measurement": "ΔLog CFU/lungs vs A/0h", "setting": "A. baumannii ACC01073; 240 mg/kg/day q6h", "value": -2.52}, {"measurement": "CFU/lungs, average", "setting": "A. baumannii ACC01073; 240 mg/kg/day q6h", "value": "4.14E+05"}, {"measurement": "Log CFU/lungs, average (bacterial load)", "setting": "A. baumannii ACC01073; 240 mg/kg/day q6h", "value": 5.17}, {"measurement": "Reduction in CFUs in lungs", "setting": "A. baumannii ACC01073; 360 mg per kg per day", "value": "> 5", "unit": "log"}, {"measurement": "ΔLog CFU/lungs vs A/0h", "setting": "A. baumannii ACC01073; 360 mg/kg/day q6h", "value": -4.81}, {"measurement": "CFU/lungs, average", "setting": "A. baumannii ACC01073; 360 mg/kg/day q6h", "value": "9.88E+02"}, {"measurement": "Log CFU/lungs, average (bacterial load)", "setting": "A. baumannii ACC01073; 360 mg/kg/day q6h", "value": 2.88}]}]}
